23 molecules from patent US20090270450A1, “CHEMICAL COMPOUNDS” (ASTRAZENECA AB, priority 2006, published 2009) can be followed below.

Where a name gives a salt, the structure may show the parent alone.

One assay concerns the target T1, His-tagged kinase domain of CSF-1R (amino acids 568-912) (Homo sapiens, UniProt P07333).
T1 construct: The His-tagged kinase domain of CSF-1R (i.e., amino acids 568-912, GeneBank ID NM_005211); His; made in house; host or cells: baculovirus infected SF+Express insect cells
T1 sequence (P07333 568-912): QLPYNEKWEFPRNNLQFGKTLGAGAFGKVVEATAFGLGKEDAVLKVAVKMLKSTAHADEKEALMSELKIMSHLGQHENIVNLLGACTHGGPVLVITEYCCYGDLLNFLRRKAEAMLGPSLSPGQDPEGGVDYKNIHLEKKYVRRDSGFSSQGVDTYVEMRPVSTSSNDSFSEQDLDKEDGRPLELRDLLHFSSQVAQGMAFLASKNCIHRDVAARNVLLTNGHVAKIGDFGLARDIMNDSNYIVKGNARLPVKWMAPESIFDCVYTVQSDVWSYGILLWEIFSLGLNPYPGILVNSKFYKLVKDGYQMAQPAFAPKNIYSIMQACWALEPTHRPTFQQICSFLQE
Kind of assay: Assay 1: CSF-1R in vitro AlphaScreen assay. The conditions noted are these: phosphorylation of biotinylated pEY substrate; 0.57 nM CSF-1R, 90 μM ATP. The class given is biochemical. How it is done: Assay 1: CSF-1R in Vitro AlphaScreen Assay
Activity of purified CSF-1R was determined in vitro using an Amplified Luminescent Proximity Homogeneous Assay (ALPHA)(Perkin Elmer), which measures phosphorylation of the CSF-1R substrate, biotinylated poly-glutamine-tyrosine peptide (PEY-HTRF CisBio 61GT0BLD), as described below. The His-tagged kinase domain of CSF-1R (i.e., amino acids 568-912, GeneBank ID NM_005211; (see page 25 lines 13-19 of WO 2006/067445 for the sequence listing)) was purified from baculovirus infected SF+Express insect cells (1.4×10^6 cells/ml), French pressed and chromatographed through subsequent Qiagen Ni-NTA, Superflow Mono Q HR 10/10, and Superdex 200 SEC columns. Typical yield was 245 μg/l of cell pellet at >95% purity.
The phosphorylation of the CSF-1R substrate in the presence and absence of the compound of interest was determined. Briefly, 0.57 nM of purified CSF-1R, 5 nM pEY substrate, and compound were preincubated in 1× buffer for 30 minutes at 25° C. Reactions were initiated with addition of 90 μM adenosine triphosphate (ATP) in 1× buffer and incubated at 25° C. for 60 minutes and reactions stopped by addition of 5 μl of detection mix consisting of 136 mM NaCl, 102 mM ethylenediamine tetraacetic acid, 1.65 mg/ml BSA, 40 ug/ml Streptavidin donor beads (Perkin Elmer 6760002), 40 ug/ml pTyr100 acceptor beads (Perkin Elmer 6760620). Plates were incubated at 25° C. for 18 hours in the dark. Phosphorylated substrate was detected by an EnVision plate reader (Perkin Elmer) 680 nm excitation, 520-620 nm emission. Data was graphed and IC50s calculated using Excel Fit (Microsoft).
Molecule `CCOc1cc2ncc(C(N)=O)c(Nc3ccc(F)cc3F)c2cc1C1=CCN(C(=O)OC(C)(C)C)CC1` [Example 38, tert-Butyl 4-{3-(aminocarbonyl)-4-[(2,4-difluorophenyl)amino]-7-ethoxyquinolin-6-yl}-3,6-dihydropyridine-1(2H)-carboxylate] showed an IC50 of 660 nM. In other words, the sub-micromolar range.
The same measure, in the same setting: with `CCOc1cc2ncc(C(N)=O)c(Nc3ccc(F)cc3F)c2cc1C1=CCNCC1` [Example 39, 4-[(2,4-Difluorophenyl)amino]-7-ethoxy-6-(1,2,3,6-tetrahydropyridin-4-yl)quinoline-3-carboxamide] the figure was less than 3 nM.
The same measure, in the same setting: the figure for `CCOc1cc2ncc(C(N)=O)c(Nc3ccc(F)cc3F)c2cc1C1CCNCC1` [Example 40, 4-[(2,4-Difluorophenyl)amino]-7-ethoxy-6-piperidin-4-ylquinoline-3-carboxamide] is 7 nM; for `CCOc1cc2ncc(C(N)=O)c(Nc3ccc(F)cc3F)c2cc1C1=CCN(C(C)=O)CC1` [Example 41, 6-(1-Acetyl-1,2,3,6-tetrahydropyridin-4-yl)-4-[(2,4-difluorophenyl)amino]-7-ethoxyquinoline-3-carboxamide] it is 14 nM; for `CCOc1cc2ncc(C(N)=O)c(Nc3ccc(C)cc3F)c2cc1C1CCN(C)CC1` [Example 42, 7-Ethoxy-4-[(2-fluoro-4-methylphenyl)amino]-6-(1-methylpiperidin-4-yl)quinoline-3-carboxamide] it is 5 nM.
The molecule `CCOc1cc2ncc(C(N)=O)c(Nc3ccc(F)cc3F)c2cc1C1CCN(C)CC1` [Example 43, 4-[(2,4-Difluorophenyl)amino]-7-ethoxy-6-(1-methylpiperidin-4-yl)quinoline-3-carboxamide] had a half-inhibitory concentration (IC50) of less than 3.9 nM.
The molecule `CCOc1cc2ncc(C(N)=O)c(Nc3cccc(Cl)c3F)c2cc1C1CCN(C)CC1` [Example 44, 4-[(3-Chloro-2-fluorophenyl)amino]-7-ethoxy-6-(1-methylpiperidin-4-yl)quinoline-3-carboxamide] yielded an IC50 of less than 3 nM.
Still for that read-out and setting: with `CCOc1cc2ncc(C(N)=O)c(Nc3cccc(Cl)c3Cl)c2cc1C1CCN(C)CC1` [Example 45, 4-[(2,3-Dichlorophenyl)amino]-7-ethoxy-6-(1-methylpiperidin-4-yl)quinoline-3-carboxamide] the figure was less than 3 nM.
With `CCOc1cc2ncc(C(N)=O)c(Nc3ccc(F)cc3F)c2cc1C1CCN(C(C)C)CC1` [Example 46, 4-[(2,4-Difluorophenyl)amino]-7-ethoxy-6-(1-isopropylpiperidin-4-yl)quinoline-3-carboxamide], it took 18 nM to reach half-maximal inhibition (IC50).
Same read-out and setting: with `CCOc1cc2ncc(C(N)=O)c(Nc3ccc(C)cc3F)c2cc1C1CCN(C(C)C)CC1` [Example 47, 7-Ethoxy-4-[(2-fluoro-4-methylphenyl)amino]-6-(1-isopropylpiperidin-4-yl)quinoline-3-carboxamide] the figure was 4 nM; with `CCOc1cc2ncc(C(N)=O)c(Nc3cc(C)ccc3F)c2cc1C1CCN(C(C)C)CC1` [Example 48, 7-Ethoxy-4-[(2-fluoro-5-methylphenyl)amino]-6-(1-isopropylpiperidin-4-yl)quinoline-3-carboxamide], 3 nM; with `COc1cc2ncc(C(N)=O)c(Nc3ccc(C)cc3F)c2cc1C1CCN(C)CC1` [Example 49, 4-[(2-Fluoro-4-methylphenyl)amino]-7-methoxy-6-(1-methylpiperidin-4-yl)quinoline-3-carboxamide], 7 nM.
As for `COc1cc2ncc(C(N)=O)c(Nc3cccc(Cl)c3F)c2cc1C1CCN(C)CC1` [Example 50, 4-[(3-Chloro-2-fluorophenyl)amino]-7-methoxy-6-(1-methylpiperidin-4-yl)quinoline-3-carboxamide], 6 nM corresponded to half-maximal inhibition (IC50). The IC50 values of the last two molecules are within 1.5-fold of each other.
The same measure, in the same setting: the figure for `COc1cc2ncc(C(N)=O)c(Nc3ccc(F)cc3F)c2cc1C1CCN(C)CC1` [Example 51, 4-[(2,4-Difluorophenyl)amino]-7-methoxy-6-(1-methylpiperidin-4-yl)quinoline-3-carboxamide] is 10 nM.
Same read-out and setting: with `COc1cc2ncc(C(N)=O)c(Nc3ccc(F)cc3F)c2cc1C1CCN(C(C)=O)CC1` [Example 55, 6-(1-Acetylpiperidin-4-yl)-4-[(2,4-difluorophenyl)amino]-7-methoxyquinoline-3-carboxamide] the figure was 15 nM; with `CCOc1cc2ncc(C(N)=O)c(Nc3ccc(F)cc3F)c2cc1-c1ccc(=O)[nH]c1` [Example 59, 4-[(2,4-Difluorophenyl)amino]-7-ethoxy-6-(6-oxo-1,6-dihydropyridin-3-yl)quinoline-3-carboxamide], 7 nM.

The target of the next assay is T1, His-tagged kinase domain of CSF-1R (amino acids 568-912). In words: Assay 2: CSF1R in-vitro AlphaScreen assay. The class given is biochemical. The conditions noted are these: phosphorylation of biotinylated pEY substrate; 0.46 nM CSF-1R, 12 mM ATP mix. How it is done: Assay 2: CSF1R in-Vitro AlphaScreen Assay
Activity of purified CSF-1R was determined in-vitro using an Amplified Luminescent Proximity Homogeneous Assay (ALPHA) (Perkin Elmer, Mass.), which measures phosphorylation of CSF-1R substrate, biotinylated poly-glutamine-tyrosine peptide (pEY-HTRF CisBio 61GT0BLD), as described below. The His-tagged kinase domain of CSF-1R (i.e., amino acids 568-912, GeneBank ID NM_005211) was purified from baculovirus infected SF+Express insect cells (1.4×10^6 cells/ml), French pressed and chromatographed through subsequent QIAgen Ni-NTA, Superflow Mono Q HR 10/10, and Superdex 200 SEC columns. Typical yield was 322 ug/l of cell pellet at >95% purity. The phosphorylation of the CSF-1R substrate in the presence and absence of the compound of interest was determined. Briefly, 5 ul of Enzyme/Substrate/adenosine triphosphate (ATP) mix consisting of 0.46 nM of purified CSF-1R, 12 nM pEY substrate, and 12 mM ATP in 1.2× buffer was preincubated with 2 ul of compound for 20 minutes at 25° C. Reactions were initiated with 5 ul of Metal mix consisting of 24 mM MgCl2 in 1.2× buffer and incubated at 25° C. for 90 minutes and reactions were stopped by addition of 5 ul of Detection mix consisting of 20 mM HEPES, 102 mM ethylenediamine tetraacetic acid, 1.65 mg/ml BSA, 136 mM NaCl, 40 ug/ml Streptavidin donor beads (Perkin Elmer, Mass., Catalog #6760002), and 40 ug/ml phosphotyrosine-specific antibody coated acceptor beads (Perkin Elmer, Mass., Catalog #6760620). Plates were incubated at 25° C. for 18 hours in the dark. Phosphorylated substrate was detected by an EnVision plate reader (Perkin Elmer) 680 nm excitation, 520-620 nm emission. Data was graphed and IC50s calculated using Excel Fit (Microsoft). […] For example the following results were obtained in an assay substantially similar to one or other of the assays described hereinabove: […]
(Alpha assays give light when donor and acceptor beads are brought close together.)
For the molecule `CCOc1cc2ncc(C(N)=O)c(Nc3ccc(F)cc3F)c2cc1C1CCN(C(C)C)CC1` [Example 46, 4-[(2,4-Difluorophenyl)amino]-7-ethoxy-6-(1-isopropylpiperidin-4-yl)quinoline-3-carboxamide], 22 nM corresponded to half-maximal inhibition (IC50).
Still for that read-out and setting: with `COc1cc2ncc(C(N)=O)c(Nc3ccc(C)cc3F)c2cc1C1CCN(C(C)C)CC1` [Example 52, 4-[(2-Fluoro-4-methylphenyl)amino]-6-(1-isopropylpiperidin-4-yl)-7-methoxyquinoline-3-carboxamide] the figure was 14 nM; with `COc1cc2ncc(C(N)=O)c(Nc3ccc(F)cc3F)c2cc1C1CCN(C(C)C)CC1` [Example 53, 4-[(2,4-Difluorophenyl)amino]-6-(1-isopropylpiperidin-4-yl)-7-methoxyquinoline-3-carboxamide], 32 nM.
The same measure, in the same setting: the figure for `COc1cc2ncc(C(N)=O)c(Nc3cccc(Cl)c3F)c2cc1C1CCN(C(C)C)CC1` [Example 54, 4-[(3-Chloro-2-fluorophenyl)amino]-6-(1-isopropylpiperidin-4-yl)-7-methoxyquinoline-3-carboxamide] is 8 nM; for `CCOc1cc2ncc(C(N)=O)c(Nc3ccc(C)cc3F)c2cc1C1CCN(C(C)=O)CC1` [Example 56, 6-(1-Acetylpiperidin-4-yl)-7-ethoxy-4-[(2-fluoro-4-methylphenyl)amino]quinoline-3-carboxamide] it is 30 nM; for `CCOc1cc2ncc(C(N)=O)c(Nc3ccc(C)cc3F)c2cc1C1CCN(C(=O)CCOC)CC1` [Example 57, 7-Ethoxy-4-[(2-fluoro-4-methylphenyl)amino]-6-[1-(3-methoxypropanoyl)piperidin-4-yl]quinoline-3-carboxamide] it is 71 nM.
Same read-out and setting: the figure for `CCOc1cc2ncc(C(N)=O)c(Nc3ccc(C)cc3F)c2cc1C1CCN(C(=O)[C@@H](C)O)CC1` [Example 58, 7-Ethoxy-4-[(2-fluoro-4-methylphenyl)amino]-6-{1-[(2R)-2-hydroxypropanoyl]piperidin-4-yl}quinoline-3-carboxamide] is 52 nM; for `COc1cc2ncc(C(N)=O)c(Nc3ccc(C)cc3F)c2cc1C1CCN(CCO)CC1` [Example 60, 4-[(2-Fluoro-4-methylphenyl)amino]-6-[1-(2-hydroxyethyl)piperidin-4-yl]-7-methoxyquinoline-3-carboxamide hydrochloride] it is 4 nM.

As usually defined, the IC50 is the concentration at which inhibition is half-maximal. A low value points to inhibition by little substance.
